The source of these data is paper PMC6100008, “Fingerprint-Based Machine Learning Approach to Identify Potent and Selective 5-HT2BR Ligands” (Molecules : A Journal of Synthetic Chemistry and Natural …, 2018).

Each structure is given as a SMILES string. Like-named read-outs stand apart in the source and are kept apart here. Bounds are passed on as bounds.

In assay [1] the test system is 5-HT2B. The note with it: cited from earlier work.
Assay [2] concerns the target 5-HT2B. Also on record: method as in earlier work. The following applies: Figure 1; ref 21 (1), ChEMBL (2, 3), ref 24 (5), ref 26 (7); cited from earlier work.
Another assay has as its target 5-HT1B. The following applies: Figure 1; ref 21 (compound 1), ChEMBL (compounds 2, 3); cited from earlier work.
Assay [3] relates to 5-HT2B. Also on record: method as in PMID 8709108. The note with it: Figure 1; cited from earlier work.
The next assay deals with human 5-HT2B receptor (Homo sapiens, UniProt P41595). Kind of assay: Competition binding in human 5-HT2B receptor ([3H]-LSD, CHO-5-HT2B membranes). The note with it: for inhibition at 10 µM: read-out: 5-HT2B (%) percentage of inhibition; for 5-HT2BR affinity range in words: conclusions.
For the next assay, the target named is T1, human 5-HT1B receptor (Homo sapiens, UniProt P28222).
T1 construct: expressed in transfected cells; host or cells: HeLa (Hela-5-HT1B cell line, Lot A001/14-11-2011)
As to the kind of experiment: Competition binding in human 5-HT1B receptor ([3H]-GR125743, Hela-5-HT1B membranes). The note with it: for inhibition at 10 µM: 10 µM compound, mean ± SD of three independent assays with duplicate measurements, read-out: 5-HT1B (%) percentage of inhibition; for Ki: measured if inhibition at 10 µM exceeded 50%, mean ± SD of three assays.

For a further assay, the target named is T2, human serotonin 5-HT1AR (Homo sapiens, UniProt P08908).
T2 construct: expressed in transfected cells
T2 sequence (P08908 1-422): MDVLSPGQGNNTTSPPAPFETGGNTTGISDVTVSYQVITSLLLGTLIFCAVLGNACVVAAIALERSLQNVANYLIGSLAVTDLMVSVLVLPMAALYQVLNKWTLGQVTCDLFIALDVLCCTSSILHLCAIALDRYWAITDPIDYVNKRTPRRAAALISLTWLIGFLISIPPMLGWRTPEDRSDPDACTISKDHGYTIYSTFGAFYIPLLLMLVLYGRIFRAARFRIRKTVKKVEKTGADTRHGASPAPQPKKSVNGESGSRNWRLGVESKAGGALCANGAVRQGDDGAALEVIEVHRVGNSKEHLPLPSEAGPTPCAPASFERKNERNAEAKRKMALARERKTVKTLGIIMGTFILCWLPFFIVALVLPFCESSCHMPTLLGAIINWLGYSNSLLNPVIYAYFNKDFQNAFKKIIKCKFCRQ
Kind of assay: Competition binding in human 5-HT1A receptor ([3H]-8-OH-DPAT, HEK293 membranes). The following applies: 5-HT panel screening; mean ± SD.

The target of assay [4] is T3, human serotonin 5-HT6 receptor (Homo sapiens, UniProt P50406).
T3 construct: expressed in transfected cells
Kind of assay: Competition binding in human 5-HT6 receptor ([3H]-LSD, HEK293 membranes). The note with it: 5-HT panel screening; mean ± SD.

The target of assay [5] is T4, human serotonin 5-HT7b receptor (Homo sapiens, UniProt P34969).
T4 construct: expressed in transfected cells
As to the kind of experiment: Competition binding in human 5-HT7 receptor ([3H]-5-CT, HEK293 membranes). The following applies: 5-HT panel screening; mean ± SD.

Assay [6] concerns the target T5, human serotonin 5-HT2A receptor (Homo sapiens, UniProt P28223).
T5 construct: expressed in transfected cells
Kind of assay: Competition binding in human 5-HT2A receptor ([3H]-Ketanserin, HEK293 membranes). The note with it: 5-HT panel screening; mean ± SD.

T1 sequence (P28222 whole entry): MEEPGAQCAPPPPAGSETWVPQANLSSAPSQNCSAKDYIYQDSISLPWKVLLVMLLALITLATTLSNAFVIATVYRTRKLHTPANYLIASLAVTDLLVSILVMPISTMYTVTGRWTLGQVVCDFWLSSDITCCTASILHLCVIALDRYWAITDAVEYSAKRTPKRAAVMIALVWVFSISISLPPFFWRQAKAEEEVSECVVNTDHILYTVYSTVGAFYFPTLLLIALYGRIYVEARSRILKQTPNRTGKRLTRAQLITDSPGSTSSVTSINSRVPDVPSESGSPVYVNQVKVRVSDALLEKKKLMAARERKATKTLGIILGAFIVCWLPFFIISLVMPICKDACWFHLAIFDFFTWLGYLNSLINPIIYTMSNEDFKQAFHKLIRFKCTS
Sequence of human 5-HT2B receptor (P41595 whole entry): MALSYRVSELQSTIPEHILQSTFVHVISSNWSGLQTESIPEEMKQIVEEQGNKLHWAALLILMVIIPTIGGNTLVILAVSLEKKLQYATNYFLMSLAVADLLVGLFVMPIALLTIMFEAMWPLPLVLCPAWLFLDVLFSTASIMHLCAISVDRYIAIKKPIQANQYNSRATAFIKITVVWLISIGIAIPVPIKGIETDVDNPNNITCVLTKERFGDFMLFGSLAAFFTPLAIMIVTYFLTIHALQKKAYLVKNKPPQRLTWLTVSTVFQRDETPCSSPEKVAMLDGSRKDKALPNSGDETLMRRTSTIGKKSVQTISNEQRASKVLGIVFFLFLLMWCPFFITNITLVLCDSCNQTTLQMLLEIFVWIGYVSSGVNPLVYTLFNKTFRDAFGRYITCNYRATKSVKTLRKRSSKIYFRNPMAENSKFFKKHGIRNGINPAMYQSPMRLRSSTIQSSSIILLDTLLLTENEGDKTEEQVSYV
T4 sequence (P34969 1-432): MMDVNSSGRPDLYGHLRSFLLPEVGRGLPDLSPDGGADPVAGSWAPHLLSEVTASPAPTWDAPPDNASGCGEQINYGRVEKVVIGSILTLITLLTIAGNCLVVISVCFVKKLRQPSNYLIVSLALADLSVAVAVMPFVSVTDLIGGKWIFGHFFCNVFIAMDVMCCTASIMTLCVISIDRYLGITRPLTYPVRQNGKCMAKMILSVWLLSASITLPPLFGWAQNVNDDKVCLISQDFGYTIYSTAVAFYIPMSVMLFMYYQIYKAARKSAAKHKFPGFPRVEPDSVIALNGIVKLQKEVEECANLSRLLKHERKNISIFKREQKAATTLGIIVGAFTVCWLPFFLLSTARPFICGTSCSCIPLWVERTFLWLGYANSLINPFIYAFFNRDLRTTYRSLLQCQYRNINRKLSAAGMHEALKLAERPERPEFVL
T3 sequence (P50406 whole entry): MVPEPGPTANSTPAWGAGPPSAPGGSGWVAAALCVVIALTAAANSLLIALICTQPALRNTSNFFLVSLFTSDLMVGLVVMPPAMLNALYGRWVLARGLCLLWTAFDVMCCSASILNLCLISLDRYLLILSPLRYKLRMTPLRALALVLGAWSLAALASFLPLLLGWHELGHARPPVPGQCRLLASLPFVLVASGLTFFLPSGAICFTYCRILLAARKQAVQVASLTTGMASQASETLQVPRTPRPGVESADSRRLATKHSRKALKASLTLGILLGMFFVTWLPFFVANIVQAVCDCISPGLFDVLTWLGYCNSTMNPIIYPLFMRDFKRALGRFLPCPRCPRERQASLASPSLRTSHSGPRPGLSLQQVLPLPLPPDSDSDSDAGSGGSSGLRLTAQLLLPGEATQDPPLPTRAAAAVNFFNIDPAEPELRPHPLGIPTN
T5 sequence (P28223 whole entry): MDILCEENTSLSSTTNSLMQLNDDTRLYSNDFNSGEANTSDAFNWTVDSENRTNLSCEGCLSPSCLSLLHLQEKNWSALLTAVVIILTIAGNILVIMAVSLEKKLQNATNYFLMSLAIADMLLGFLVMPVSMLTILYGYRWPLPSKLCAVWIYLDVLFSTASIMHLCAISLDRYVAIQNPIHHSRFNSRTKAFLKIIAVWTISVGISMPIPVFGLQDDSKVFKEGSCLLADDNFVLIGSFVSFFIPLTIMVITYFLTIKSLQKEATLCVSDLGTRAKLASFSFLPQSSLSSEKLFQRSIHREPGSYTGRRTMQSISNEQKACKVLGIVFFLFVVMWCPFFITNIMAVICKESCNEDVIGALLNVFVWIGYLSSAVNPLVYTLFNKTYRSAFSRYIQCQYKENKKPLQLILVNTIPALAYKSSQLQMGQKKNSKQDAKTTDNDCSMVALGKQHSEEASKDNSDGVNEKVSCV

Turning to `O=C(c1ccc(-c2ccccc2)cc1)N1CCC(c2nc3ccccc3[nH]2)CC1` [Compound 17], the 50% inhibitory concentration (IC50) in the assay with 5-HT2B [1] (Figure 6, closest literature analogue, read-out: IC50 (5-HT2BR)) is 2.4 nM.
With `Cn1ccc2cc(NC(=O)Nc3cccnc3)ccc21` [Compound 7, SB-200646A], the “pKi (5-HT2B)” value on 5-HT2B [2] is 7.5.
As for `CCCCN1CCC(COC(=O)c2cc(F)c(N)c3c2OCCO3)CC1` [Compound 3], the “pKi (5-HT1B)” value at 5-HT1B is over 5. Besides, the “pKi (5-HT2B)” value on 5-HT2B [2] is 6.78.
On to `CCOC(=O)c1cccc(NC2=NC(N)=NC3(CCCCC3)N2)c1` [Compound 1], for which, on 5-HT1B, the “pKi (5-HT1B)” value is given as over 5. In addition, the “pKi (5-HT2B)” value on 5-HT2B [2] is given as 8.14.
Turning to `COc1ccc(CC2NCCc3c2[nH]c2ccccc32)cc1OC` (centres unmarked) [Compound 6, LY-23728], the “pKB (5-HT2B)” value in the assay on 5-HT2B [3] is 9.17.
Turning to `CC(C)c1cc(-c2ccc(F)c3ccccc23)nc(N)n1` [Compound 4, RS-127445], in the assay on 5-HT2B [1] (Figure 1, read-out: IC50 (5-HT2B)), the concentration for half-maximal inhibition (IC50) was 0.7 nM.
In the case of `COc1cccc(-c2n[nH]cc2C(=O)N2CCCC(c3cc(O)ncn3)C2)c1` (centres unmarked) [Compound 12], the values for the inhibition at 10 µM at human 5-HT2B receptor and on human 5-HT1B receptor were 36 ± 4% and 7 ± 1%, respectively.
Regarding `COc1ccc2c(c1)NC1(CCN(C(=O)c3ccc(C)c(C)c3)CC1)c1cccn1-2` [Compound 15], the inhibition at 10 µM on human 5-HT2B receptor turned out to be 31 ± 4%; at human 5-HT1B receptor it was 28 ± 3%.
Turning to `COc1cc(N)c(Cl)cc1C(=O)NC1CCN(CCCOc2ccc(F)cc2)CC1OC` (centres unmarked) [Compound 2], on 5-HT1B, the “pKi (5-HT1B)” value is listed as over 5.3.
Turning to `CCc1ccc(NC(=O)c2ccc(-c3noc(C4CCN(C(=O)c5ccc(F)cc5)CC4)n3)cc2)cc1` [Compound 16], the inhibition at 10 µM on human 5-HT2B receptor was 24 ± 4%; on human 5-HT1B receptor it was 1 ± 1%.
Turning to `Cc1c(C(=O)N2CCC(c3ncc[nH]3)CC2)n[nH]c1-c1ccc(Cl)cc1` [Compound 8], the Ki was over 20000 nM on human serotonin 5-HT1AR; 13200 ± 1500 nM in [4]; over 20000 nM in assay [5]; 0.3 ± 0.07 nM at human 5-HT2B receptor; over 20000 nM in assay [6]; 2930 ± 321 nM on human 5-HT1B receptor. Further, the “5-HT2BR affinity range in words” value on human 5-HT2B receptor is “subnanomolar”. Moreover, at human 5-HT2B receptor (ratio of 5-HT1BR and 5-HT2BR affinity), the “selectivity for 5-HT2BR versus 5-HT1BR” value is reported as “ten thousand-fold”.
Consider `Cn1c(CN2CCCCC2)nnc1C1CCCN(CCc2ccccc2)C1` (centres unmarked) [Compound 10], for which, at human 5-HT2B receptor, the inhibitory constant (Ki) worked out at 2610 ± 422 nM and the “5-HT2BR affinity range in words” value is “low micromolar”. Moreover, on human 5-HT1B receptor, the inhibition at 10 µM was 7 ± 4%.
Turning to `Cc1cc([N+](=O)[O-])c(N2CCN(Cc3ccccc3)CC2)cc1N` [Compound 5, EGIS-7625], the “pKi (5-HT2B)” value at 5-HT2B [2] is reported as 9.0.
With `Cc1c(-c2ccccc2)sc(NC(=O)Cn2c(=O)cnc3ccccc32)c1C(=O)N1CCCCC1` [Compound 9], the Ki at human serotonin 5-HT1AR was over 20000 nM; in assay [4], 7500 ± 900 nM; in [5] it was over 20000 nM; on human 5-HT2B receptor it was 235 ± 15.9 nM; in [6], over 20000 nM; on human 5-HT1B receptor it was 2100 ± 622 nM. At human 5-HT2B receptor, the “5-HT2BR affinity range in words” value is recorded as “submicromolar”.
Take `CCOC(=O)c1c(CN2CCCCC2)n(C)c2c1cc(OC(C)=O)c1c2c(-c2ccccc2)nn1-c1ccccc1` [Compound 14]: the results for the inhibition at 10 µM at human 5-HT2B receptor and at human 5-HT1B receptor were 34 ± 4% and 26 ± 4%, respectively.
Turning to `COc1ccc(NC(=O)c2ccc(-c3ccncc3)c(C)c2)cc1N1CCN(C)CC1` [[^3H]-GR125743, reference compound], the dissociation constant (Kd) at human 5-HT1B receptor (radioligand used at […], read-out: KD of radioligand at 5-HT1BR) worked out at 0.74 nM.
Regarding `Cc1ncc(C(=O)N2CCC(c3nccn3Cc3ccccc3)CC2)c(=O)[nH]1` [Compound 13], the inhibition at 10 µM is 34 ± 4% at human 5-HT2B receptor and 19 ± 3% on human 5-HT1B receptor.
`Cc1cccc2[nH]c(C3CCN(C(=O)c4cnn[nH]4)CC3)nc12` [Compound 11]: the inhibition at 10 µM on human 5-HT2B receptor came to 40 ± 3%; on human 5-HT1B receptor, 12 ± 4%.

In general, IC50 refers to the concentration that inhibits the measured activity by half. In general, inhibition refers to the relative decrease from the control value, in per cent. Broadly, the Ki is the equilibrium dissociation constant of an inhibitor or competing ligand from its target. The Kd is the constant that tells how readily two partners part at equilibrium.
